Results taken from patent US10537611B2, “Methods of treating lung cancer” (Five Prime Therapeutics, Inc., priority 2011, dated 2020).

Key:
MFE-319 xenograft model = experiment: MFE-319 xenograft tumor growth inhibition; type: in vivo, mouse; settings: Endometrial MFE-319; IP 15 mg/kg BIW; non-amplified; P ns
Description: (§1) Percentage tumor growth inhibition by FGFR1-ECD.339-Fc was determined by area-under-the-curve (AUC) analysis of xenograft growth curves treated with FGFR1-ECD.339-Fc compared to albumin control. […] The difference in FGFR1-ECD.339-Fc-mediated xenograft inhibition between FGFR1 gene amplified and non-amplified lung cancer xenograft models was statistically significant (P=0.0333).
(§2) Also shown in Table 5 are the dosing schedule for FGFR1-ECD.339-Fc in a mouse xenograft model, the percent tumor growth inhibition (TGI (%)) and the statistical significance of the tumor growth inhibition (P Value), as well as whether the FGFR1 gene is amplified in the cell line.
(§3) An exemplary xenograft experiment is as follows. For Caki-1 and MSTO-211H, five million cells were implanted subcutaneously over the right flank of SCID mice (N=10 per group). […] Representative tumor growth curves are shown for a renal cancer, Caki-1, (A), and mesothelioma, MSTO-211H, (B) xenograft cancer model. […] In the MSTO-211H mesothelioma model, FGFR1-ECD.339-Fc administration reduced tumor growth (FIG. 16b) by 64% (P<0.0001).

mitogenic FGFs = experiment: Binding to mitogenic FGFs relative to FGF-23
Description: FGFR1-ECD.339-Fc binds to the mitogenic FGFs with 10 to 100-fold higher affinity than to FGF-23. […] The potential biological impact of this relatively weak FGFR1-ECD.339-Fc/FGF-23 binding was investigated in rats following four weekly doses of FGFR1-ECD.339-Fc at a dose range of 10-200 mg/kg/qwk.

U-251 xenograft model = experiment: U-251 xenograft tumor growth inhibition; type: in vivo, mouse; settings: Glioblastoma U-251; IP 15 mg/kg BIW; non-amplified; P = 0.0078
Description: as §1, §2, §3

HEC-1B xenograft model = experiment: HEC-1B xenograft tumor growth inhibition; type: in vivo, mouse; settings: Endometrial HEC-1B; IP 15 mg/kg BIW; non-amplified; P < 0.05
Description: as §1, §2, §3

[1] = system: lung cancer cell lines without FGFR1 gene amplification; experiment: CellTiter-Glo cell number, non-amplified lung cancer cell lines (average); type: cell-based, human; settings: averaged across all FBS concentrations, vs control ECD-Fc
Description: To determine the impact of FGFR1-ECD.339-Fc on lung cancer cell lines in tissue culture, cells were plated in a Microtest™ 96-well tissue culture plate (Becton Dickenson, Franklin Lakes, N.J.) at a density of 5×10^3 cells/well in medium containing 10%, 1% or 0.1% FBS in the presence or absence of 15 μg/ml FGFR1-ECD.339-Fc (SEQ ID NO: 6) or an unrelated ECD-Fc fusion protein (as a negative control). Plates were incubated at 37° C. at 5% CO2 for 4 days and then assayed to determine the impact of FGFR1-ECD.339-Fc on cell number and proliferation.
To determine cell number the CellTiter-Glo® Luminescent Cell Viability Assay (Promega, Madison, Wis.) was employed. CellTiter-Glo® is a homogeneous method of determining the number of viable cells in culture based on quantitation of the ATP present, an indicator of metabolically active cells. In brief, CellTiter-Glo® Reagent was added to each well of the tissue culture plate at a volume equal to the volume of cell culture medium present in each well (100 μl), the contents mixed for 2 minutes on an orbital shaker to induce cell lysis and then the plate incubated for 10 minutes at room temperature. Luminescence was then determined on an EnVision™ Multilabel Plate Reader (PerkinElmer, Boston, Mass.) with a 0.2 second integration time. Results were expressed as relative light units (RLU)/well. […]

higher affinity for mitogenic FGFs than for FGF-23 (mitogenic FGFs): 10 to 100 fold
Substance: FGFR1-ECD.339-Fc: human FGFR1 extracellular domain ending at amino acid 339 fused to an Fc; SEQ ID NO: 6 (mature form), SEQ ID NO: 5 with signal peptide
TGI (%) (MFE-319 xenograft model): 0%
TGI (%) (U-251 xenograft model): 48%
TGI (%) (HEC-1B xenograft model): 30%
average decrease in cell number (CellTiterGlo RLU) [1]: 9.33%
